Test system: poly A–poly U (pApU, ds-RNA) (RNA, polymer) A/U
Assay: fluorimetric titration, Scatchard fit
Details: Na+ (sodium cacodylate, I = 0.05 M), pH 7.0, 25 °C, recalculated for fixed n = 0.2 [bound dye]/[polynucleotide], c(nucleobase), per base

With `Cc1cccc(C)c1B(c1c(C)cc(N(C)C)cc1C)c1c(C)cc([N+](C)(C)Cc2cn(CC[C@H](NC(=O)OCC3c4ccccc4-c4ccccc43)C(=O)O)nn2)cc1C` the “log Ks” value (TB-AA 3 µM) was 6.0.
In the case of `C#CC[N+](C)(C)c1cc(C)c(B(c2c(C)cccc2C)c2c(C)cc(N(C)C)cc2C)c(C)c1`, the “log Ks” value (TB-p 5 µM) is reported as 7.1.
